Data on four compounds can be found in ChEMBL document CHEMBL1201862, “PubChem BioAssay data set” (2004).

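Cultured in 96-well plates, cells were exposed to test compound for 48 hours across five concentrations. The concentration for 50% growth inhibition is given as GI50.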 Active and inactive are the calls of the source. No stated cut-off is given here; in the data, active = GI50 up to about 1.1 µM and inactive = higher. A value given as a limit tells only on which side of the number the result lay.

Some test systems named below: SNB-75; ACHN; COLO 205; MDA-N; SW-620; HCT-116; HOP-92; MCF7; IGROV-1; T47D; KM12; NCI/ADR-RES; NCI-H226; UACC-257; A498; SN12C; OVCAR-5; LOX IMVI.
What all share (assay): growth of human tumour cells (NCI), 48 h

With `CCCCCCCc1c(Cl)nc(Cl)nc1Cl`, the GI50 in the assay on SNB-75 is 14.6 µM (inactive); in the assay with ACHN, 8.61 µM (inactive); in the assay with COLO 205, 5.25 µM (inactive); with MDA-N, 3.75 µM (inactive); in the assay on SW-620, 2.68 µM (inactive); with HCT-116 it was 2.63 µM (inactive). Also, the GI50 is 4.5 µM (inactive) with HOP-92; 10.4 µM (inactive) in the assay with MCF7; 2.29 µM (inactive) in the assay on IGROV-1; 12.2 µM (inactive) in the assay on T47D; 11.2 µM (inactive) with KM12; 4.26 µM (inactive) in the assay with NCI/ADR-RES. Also, the GI50 with NCI-H226 was 2.04 µM (inactive); in the assay with UACC-257, 10.4 µM (inactive); in the assay with A498 it was 20.1 µM (inactive); with SN12C, 2.05 µM (inactive); with OVCAR-5 it was 8.85 µM (inactive); with LOX IMVI, 1.45 µM (inactive).
On to `CCC1CN2CCc3c([nH]c4ccccc34)[C@@](C(=O)OC)(c3cc4c(cc3OC)N(C)C3C(O)(C(=O)OC)C(C(=O)OC)C5(CC)C=CCN6CCC43C65)C[C@@H](C2)[C@@H]1C(C)(C)C` (some centres not stated), for which the GI50 in the assay on SNB-75 was 0.337 µM (active); in the assay with ACHN, 0.6 µM (active); in the assay on COLO 205 it was 0.372 µM (active); in the assay on MDA-N, 0.187 µM (active); in the assay with SW-620, 0.33 µM (active); with HCT-116 it was 0.312 µM (active). The GI50 is 1.03 µM (active) in the assay on HOP-92; 0.461 µM (active) in the assay on MCF7; 0.668 µM (active) in the assay with IGROV-1; 0.687 µM (active) with T47D; 0.419 µM (active) in the assay on KM12; 2.75 µM (inactive) in the assay on NCI/ADR-RES. In addition, the GI50 is 0.267 µM (active) in the assay on NCI-H226; 0.514 µM (active) with UACC-257; 0.306 µM (active) with A498; 0.607 µM (active) with SN12C; 2.68 µM (inactive) in the assay with OVCAR-5; 0.34 µM (active) in the assay on LOX IMVI.
Consider `CCOP(=O)(OCC)C(Nc1cccc(F)c1)c1ccc(N(C)C)cc1` (configuration not stated), for which the GI50 was > 100 µM (inactive) in the assay on SNB-75; > 100 µM (inactive) in the assay with ACHN; 97.1 µM (inactive) with COLO 205; > 100 µM (inactive) with MDA-N; > 100 µM (inactive) with SW-620; 48.5 µM (inactive) in the assay on HCT-116. Further, the GI50 was 18 µM (inactive) in the assay with HOP-92; > 100 µM (inactive) in the assay on MCF7; > 100 µM (inactive) in the assay on IGROV-1; 34.8 µM (inactive) with T47D; > 100 µM (inactive) in the assay on KM12; 81.8 µM (inactive) with NCI/ADR-RES. In addition, the GI50 in the assay with NCI-H226 is > 100 µM (inactive); with UACC-257, 76.9 µM (inactive); in the assay with A498, > 100 µM (inactive); in the assay with SN12C it was > 100 µM (inactive); in the assay on OVCAR-5 it was > 100 µM (inactive); in the assay with LOX IMVI it was 70.5 µM (inactive).
Turning to `Cc1cc2c(c(O)c1-c1c(C)cc(O)c3c1C(=O)C=CC3=O)C(=O)C=CC2=O`, the GI50 in the assay with SNB-75 was 5.5 µM (inactive); with ACHN it was 0.388 µM (active); with COLO 205, 0.279 µM (active); in the assay with MDA-N it was 1.46 µM (inactive); in the assay with SW-620 it was 1.59 µM (inactive); in the assay on HCT-116, 1.21 µM (inactive). Further, the GI50 in the assay with HOP-92 was 0.413 µM (active); in the assay on MCF7, 0.966 µM (active); with IGROV-1 it was 2.26 µM (inactive); in the assay on T47D, 1.34 µM (inactive); with KM12, 10.3 µM (inactive); in the assay with NCI/ADR-RES, 2.49 µM (inactive). For the same compound, the GI50 in the assay on NCI-H226 was 20.2 µM (inactive); in the assay with UACC-257, 1.62 µM (inactive); with A498 it was 6.76 µM (inactive); in the assay on SN12C, 2.37 µM (inactive); with OVCAR-5, 2.62 µM (inactive); with LOX IMVI it was 1.11 µM (active).
